The text below walks through data of patent US20250136722A1, “CYTOTOXICITY TARGETING CHIMERAS” (GLAXOSMITHKLINE INTELLECTUAL PROPERTY DEVELOPMENT LIMITED, priority 2021, published 2025).

“And” between values parts separate entries of the source, which are not always exact repeats. Equal values may be shown once.

The target in the experiment is T1, CHOK1 cells engineered to overexpress human CCR2 (Homo sapiens, UniProt P41597).
T1 construct: expressed in transfected cells; host or cells: CHOK1 cells
Kind of experiment: Antibody dependent cellular cytotoxicity (ADCC) reporter assay (Example 199). Type of experiment: cell-based. The following applies: with anti-cotinine antibody SEQ ID NO: 11/12; CHOK1-human CCR2 target cells, Jurkat FcγRIIIa NFAT-luciferase reporter cells; 12-18 hours; read-out: ADCC Reporter Assay pEC50 (converted). Put shortly:
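CHOK1-hCCR2 target cells are co-incubated for 12–18 h with Jurkat FcγRIIIa/NFAT-luciferase reporter cells, ARM compound (1 pM–10 μM) and anti-cotinine antibody with a DE-mutant human IgG1 Fc (0.01–200 μg/mL). Luminescence is expressed as signal:background against no-compound wells; EC50 comes from nonlinear fit and is reported as pEC50, averaged across runs.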
(A reporter such as luciferase makes a cellular process visible.)
As for `CC(C)N(C)[C@@H]1CC[C@H](N2CC[C@H](Nc3ncnc4ccc(C(F)(F)F)cc34)C2=O)[C@H](NC(=O)c2ccc(NCCOCCOCCOCCOCCNC(=O)[C@H]3CC(=O)N(C)[C@@H]3c3cccnc3)nc2)C1` [Example 128, N-((1R,2S,5R)-5-(Isopropyl(methyl)amino)-2-((S)-2-oxo-3-((6-(trifluoromethyl)quinazolin-4-yl)amino)pyrrolidin-1-yl)cyclohexyl)-6-((1-((2S,3S)-1-methyl-5-oxo-2-(pyridin-3-yl)pyrrolidin-3-yl)-1-oxo-5,8, 11, 14-tetraoxa-2-azahexadecan-16-yl)amino)nicotinamide], the EC50 was 1 nM.

Regarding `CC(C)N(C)[C@@H]1CC[C@H](N2CC[C@H](Nc3ncnc4ccc(C(F)(F)F)cc34)C2=O)[C@H](NC(=O)c2cc(OCCOCCOCCOCCNC(=O)[C@H]3CC(=O)N(C)[C@@H]3c3cccnc3)ccn2)C1` [Example 89], the EC50 was 6.31 nM. For `CC(C)N(C)[C@@H]1CC[C@H](N2CC[C@H](Nc3ncnc4ccc(C(F)(F)F)cc34)C2=O)[C@H](NC(=O)[C@H]2C[C@H](NC(=O)CCOCCNC(=O)CCOCCNC(=O)[C@@H]3CC(=O)N(C)[C@H]3c3cccnc3)C2)C1` [Example 45] the value was 3.98 nM; for `CC(C)N(C)[C@@H]1CC[C@H](N2CC[C@H](Nc3ncnc4ccc(C(F)(F)F)cc34)C2=O)[C@H](NC(=O)COCC(=O)N2CCN(C(=O)N3CCN(C(=O)COCCNC(=O)[C@H]4CC(=O)N(C)[C@@H]4c4cccnc4)CC3)CC2)C1` [Example 84], 0.213 nM. Under `CC(C)N(C)[C@@H]1CC[C@H](N2CC[C@H](Nc3ncnc4ccc(C(F)(F)F)cc34)C2=O)[C@H](NC(=O)[C@H]2CC[C@@H](C(=O)NCCCN3CCN(CCCNC(=O)[C@H]4CC(=O)N(C)[C@@H]4c4cccnc4)CC3)CC2)C1` [Example 150, (1 s,4S)-N^1-((1R,2S,5R)-5-(Isopropyl(methyl)amino)-2-((S)-2-oxo-3-((6-(trifluoromethyl)quinazolin-4-yl)amino)pyrrolidin-1-yl)cyclohexyl)-N^4-(3-(4-(3-((2S,3S)-1-methyl-5-oxo-2-(pyridin-3-yl)pyrrolidine-3-carboxamido)propyl)piperazin-1-yl)propyl)cyclohexane-1,4-dicarboxamide] stands 3.16 nM.

In the case of `CN1C(=O)C[C@H](C(=O)NCCC(=O)NCCOCCOCCC(=O)N[C@H]2CC[C@@H](C(=O)N[C@@H]3C[C@H](NC(C)(C)C)CC[C@@H]3N3CC[C@H](Nc4ncnc5ccc(C(F)(F)F)cc45)C3=O)CC2)[C@H]1c1cccnc1` [Example 51], the EC50 was 2 nM. For `CC(C)N(C)[C@@H]1CC[C@H](N2CC[C@H](Nc3ncnc4ccc(C(F)(F)F)cc34)C2=O)[C@H](NC(=O)CCCNC(=O)CCCC(=O)NCCCOCCCNC(=O)[C@@H]2CC(=O)N(C)[C@H]2c2cccnc2)C1` [Example 21] the value was 0.469 nM. Under `CC(C)N(C)[C@@H]1CC[C@H](N2CC[C@H](Nc3ncnc4ccc(C(F)(F)F)cc34)C2=O)[C@H](NC(=O)[C@H]2C[C@H](NC(=O)CCO[C@H]3CC[C@H](OCCNC(=O)[C@H]4CC(=O)N(C)[C@@H]4c4cccnc4)CC3)C2)C1` [Example 117] stands 0.316 nM; under `CC(C)N(C)[C@@H]1CC[C@H](N2CC[C@H](Nc3ncnc4ccc(C(F)(F)F)cc34)C2=O)[C@H](NC(=O)[C@H]2CC[C@@H](NC(=O)CCCOCCCOCCCNC(=O)[C@H]3CC(=O)N(C)[C@@H]3c3cccnc3)CC2)C1` [Example 193, (2S,3S)-N-(3-(3-(4-(((1S,4s)-4-(((1R,2S,5R)-5-(Isopropyl(methyl)amino)-2-((S)-2-oxo-3-((6-(trifluoromethyl)quinazolin-4-yl)amino)pyrrolidin-1-yl)cyclohexyl)carbamoyl)cyclohexyl)amino)-4-oxobutoxy)propoxy)propyl)-1-methyl-5-oxo-2-(pyridin-3-yl)pyrrolidine-3-carboxamide], 0.398 nM and 0.126 nM. For `CC(C)N(C)[C@@H]1CC[C@H](N2CC[C@H](Nc3ncnc4ccc(C(F)(F)F)cc34)C2=O)[C@H](NC(=O)c2cnn(C3CCN(C(=O)CCCCCCCCCCNC(=O)[C@H]4CC(=O)N(C)[C@@H]4c4cccnc4)CC3)c2)C1` [Example 156] the value was 0.794 nM; for `CC(C)N(C)[C@@H]1CC[C@H](N2CC[C@H](Nc3ncnc4ccc(C(F)(F)F)cc34)C2=O)[C@H](NC(=O)[C@H]2CC[C@@H](NC(=O)COCCOCCNC(=O)CCNC(=O)[C@H]3CC(=O)N(C)[C@@H]3c3cccnc3)CC2)C1` [Example 82], 0.479 nM; for `CC(C)N(C)[C@@H]1CC[C@H](N2CC[C@H](Nc3ncnc4ccc(C(F)(F)F)cc34)C2=O)[C@H](NC(=O)C2CCC3(CC2)CCN(CCOCCOCCNC(=O)[C@H]2CC(=O)N(C)[C@@H]2c2cccnc2)CC3)C1` [Example 93], 3.98 nM.

For `CC(C)N(C)[C@@H]1CC[C@H](N2CC[C@H](Nc3ncnc4ccc(C(F)(F)F)cc34)C2=O)[C@H](NC(=O)CCCCCCCCC(=O)NCCOCCOCCNC(=O)[C@H]2CC(=O)N(C)[C@@H]2c2cccnc2)C1` [Example 159, N^1-((1R,2S,5R)-5-(isopropyl(methyl)amino)-2-((S)-2-oxo-3-((6-(trifluoromethyl)quinazolin-4-yl)amino)pyrrolidin-1-yl)cyclohexyl)-N^10-(2-(2-(2-((2S,3S)-1-methyl-5-oxo-2-(pyridin-3-yl)pyrrolidine-3-carboxamido)ethoxy)ethoxy)ethyl)decanediamide], the EC50 is 2 nM. For `CC(C)N(C)[C@@H]1CC[C@H](N2CC[C@H](Nc3ncnc4ccc(C(F)(F)F)cc34)C2=O)[C@H](NC(=O)C2CCN(CCOCCOCCOCCOCCNC(=O)[C@H]3CC(=O)N(C)[C@@H]3c3cccnc3)CC2)C1` [Example 147] the value was 1.26 nM; for `CN1C(=O)C[C@H](C(=O)NCCOCCOCCOCCOCCOCCOCCOCCOCCC(=O)N[C@@H]2C[C@H](NC(C)(C)C)CC[C@@H]2N2CC[C@H](Nc3ncnc4ccc(C(F)(F)F)cc34)C2=O)[C@H]1c1cccnc1` [Example 36, (2S,3S)-N-(27-(((1R,2S,5R)-5-(tert-Butylamino)-2-((S)-2-oxo-3-((6-(trifluoromethyl)quinazolin-4-yl)amino)pyrrolidin-1-yl)cyclohexyl)amino)-27-oxo-3,6,9,12,15,18,21,24-octaoxaheptacosyl)-1-methyl-5-oxo-2-(pyridin-3-yl)pyrrolidine-3-carboxamide], 3.98 nM; for `CC(C)N(C)[C@@H]1CC[C@H](N2CC[C@H](Nc3ncnc4ccc(C(F)(F)F)cc34)C2=O)[C@H](NC(=O)c2cc(OCCOCCOCCOCCOCCNC(=O)[C@H]3CC(=O)N(C)[C@@H]3c3cccnc3)ccn2)C1` [Example 88, N-((1R,2S,5R)-5-(Isopropyl(methyl)amino)-2-((S)-2-oxo-3-((6-(trifluoromethyl)quinazolin-4-yl)amino)pyrrolidin-1-yl)cyclohexyl)-4-((1-((2S,3S)-1-methyl-5-oxo-2-(pyridin-3-yl)pyrrolidin-3-yl)-1-oxo-5,8,11,14-tetraoxa-2-azahexadecan-16-yl)oxy)picolinamide], 2.51 nM. For `CC(C)N(C)[C@@H]1CC[C@H](N2CC[C@H](Nc3ncnc4ccc(C(F)(F)F)cc34)C2=O)[C@H](NC(=O)[C@H]2CC[C@H](N3CCN(C4CC(CCNC(=O)[C@H]5CC(=O)N(C)[C@@H]5c5cccnc5)C4)CC3)CC2)C1` (stereo partly drawn) [Example 97, (2S,3S)-N-(2-(3-(4-((1R,4S)-4-(((1R,2S,5R)-5-(Isopropyl(methyl)amino)-2-((S)-2-oxo-3-((6-(trifluoromethyl)quinazolin-4-yl)amino)pyrrolidin-1-yl)cyclohexyl)carbamoyl)cyclohexyl)piperazin-1-yl)cyclobutyl)ethyl)-1-methyl-5-oxo-2-(pyridin-3-yl)pyrrolidine-3-carboxamide] the value was 6.31 nM; for `CC(C)N(C)[C@@H]1CC[C@H](N2CC[C@H](Nc3ncnc4ccc(C(F)(F)F)cc34)C2=O)[C@H](NC(=O)c2cc(NCCOCCOCCOCCOCCNC(=O)[C@H]3CC(=O)N(C)[C@@H]3c3cccnc3)ncn2)C1` [Example 127], 1 nM; for `CC(C)N(C)[C@@H]1CC[C@H](N2CC[C@H](Nc3ncnc4ccc(C(F)(F)F)cc34)C2=O)[C@H](NC(=O)[C@H]2CC[C@@H](NC(=O)CCOCCOCCNC(=O)CCCNC(=O)[C@H]3CC(=O)N(C)[C@@H]3c3cccnc3)CC2)C1` [Example 176, (2S,3S)-N-(4-((2-(2-(3-(((1S,4s)-4-(((1R,2S,5R)-5-(Isopropyl(methyl)amino)-2-((S)-2-oxo-3-((6-(trifluoromethyl)quinazolin-4-yl)amino)pyrrolidin-1-yl)cyclohexyl)carbamoyl)cyclohexyl)amino)-3-oxopropoxy)ethoxy)ethyl)amino)-4-oxobutyl)-1-methyl-5-oxo-2-(pyridin-3-yl)pyrrolidine-3-carboxamide], 0.794 nM and 0.398 nM. For `CC(C)N(C)[C@@H]1CC[C@H](N2CC[C@H](Nc3ncnc4ccc(C(F)(F)F)cc34)C2=O)[C@H](NC(=O)[C@H]2CC[C@@H](NC(=O)CCOCCNC(=O)CCOCCCNC(=O)[C@H]3CC(=O)N(C)[C@@H]3c3cccnc3)CC2)C1` [Example 101] the value was 0.278 nM; for `CC(C)N(C)[C@@H]1CC[C@H](N2CC[C@H](Nc3ncnc4ccc(C(F)(F)F)cc34)C2=O)[C@H](NC(=O)c2cccc(NCCOCCOCCOCCOCCOCCNC(=O)[C@H]3CC(=O)N(C)[C@@H]3c3cccnc3)n2)C1` [Example 124], 2 nM. Regarding `CC(C)N(CCOCCOCCC(=O)N[C@H]1CC[C@@H](C(=O)N[C@@H]2C[C@H](N(C)C(C)C)CC[C@@H]2N2CC[C@H](Nc3ncnc4ccc(C(F)(F)F)cc34)C2=O)CC1)C(=O)CCCNC(=O)[C@H]1CC(=O)N(C)[C@@H]1c1cccnc1` [Example 177], the EC50 is 0.501 nM and 0.316 nM. As to `CC(C)N(C)[C@@H]1CC[C@H](N2CC[C@H](Nc3ncnc4ccc(C(F)(F)F)cc34)C2=O)[C@H](NC(=O)[C@H]2CC[C@H](N3CCC(C(=O)NCCOCCOCCNC(=O)[C@H]4CC(=O)N(C)[C@@H]4c4cccnc4)CC3)CC2)C1` [Example 135], the EC50 was 2.51 nM.
